Read-outs that look alike come from different tables or passages of the source.
Columns and labels:
[1] = test system: rat fecal lysates; assay: in vitro; format: in vitro ADME; conditions: for recovery after incubation with inactive fecal lysates and HBSS at pH 6 / recovery after incubation with fecal lysates: as principle in MSKE 100 µg/mL; for recovery after incubation with fecal lysates / stability in inactive rat fecal lysates or HBSS at pH 6: 24 h
Procedure: The rat fecal lysate was prepared according to the method of Niu et al. with slight modifications. Briefly, 3 g of feces was collected from SD rats (8–10 weeks, n = 6) were then washed with ice-cold 0.1 mM potassium phosphate buffer (KPi, 10 mL). After resuspension in ice-cold 0.1 mM KPi (20 mL), the feces were vortexed and sonicated in an ice water bath for 45 min. To obtain the fecal lysate, the mixture was centrifuged at 15,000 rpm at 4 °C for 30 min. The supernatant was collected and maintained at –80 °C until use. The protein concentration in the fecal lysate was determined using a BCA™ protein assay kit.
The prepared fecal lysate was thawed and diluted with ice-cold HBSS at pH 6 to obtain a final concentration of 0.5 mg/mL protein for each test. […] The mixtures were then incubated in water bath at 37 °C for 24 h. After samples (200 μL) were collected at each specific time point (0, 1, 2, 8, and 24 h), the reaction was stopped by adding ice-cold methanol (50 μL). The samples were then vortexed and centrifuged at 15,500 rpm for 15 min, and the supernatant was injected into the UPLC for analysis.
The chemical and biological stabilities of the phenolic compounds were expressed as the concentration of the analyte at different time points relative to the concentration of the same analyte at time zero multiplied by 100 (% recovery).

[2] = Caco-2 transepithelial transport experiment; format: in vitro ADME, human; conditions: human
Procedure: The transport experiment using Caco-2 monolayer was performed according to the criteria in our laboratory as previously reported with slight modification. Briefly, the cell monolayers were prepared by seeding 400,000 cells onto a polycarbonate insert, which has a surface area and pore size of 4.2 cm^2 and 3 μm, respectively (Nunc™, Thermo Fisher Scientific, Waltham, MA, USA). Cells were maintained in a humidified atmosphere at 37 °C (90% humidity and 5% CO2) and fed every other day. After 19 to 22 days post-seeding, the cell monolayers were used in the experiments. Before the experiment, the monolayers were quickly washed twice with pre-warmed HBSS at pH 7.4 (37 °C). The integrity of each monolayer was then verified by measuring the transepithelial electrical resistance (TEER) using a Millicell® ERS meter (Millipore, Bedford, MA, USA), and layers with TEER values less than 400 Ω/cm^2 relative to that of the blank insert were discarded. Then, the monolayers were incubated with the HBSS buffer at 37 °C for 1 h, and the incubation buffer was then aspirated. The test compounds were dissolved in HBSS at pH 6 to obtain final concentrations for the individual compounds (20 μM), mixture (20 μM) and MSKE (0.25 mg/mL), which were then loaded onto the A or B side (2.6 mL) as the donor side. A 2.6 mL aliquot of HBSS at pH 6 without the test compounds was loaded into the other side as the receiver side. After incubation at 37 °C, 0.6 mL of sample was collected from the receiver side at indicated times (60, 120, 180 and 240 min), and the same volume of receiver medium was replaced after each sampling. At the end of the experiment, the cells were washed twice with ice-cold HBSS at pH 6. The cells in each well were then collected and resuspended in 600 μL of HBSS at pH 6, and sonicated in an ice water bath at an output of 9 W for 30 min to obtain the cell lysates. The lysate was divided into the following aliquots: (1) 20 μL for quantitative protein assessment using a BCA™ protein assay kit and (2) 580 μL for quantitative test compounds. The samples collected from the transport study were stored at −20 °C until the UPLC or LC–MS/MS analysis. The experiments were performed in triplicate.
The apparent permeability coefficient (Papp, cm/s) of each compound was calculated according to the following equation (Equation (1)): (1) Papp= dQ/dt×1/AC0 where dQ/dt is the compound permeation rate (nmol/s), A denotes the membrane surface area, and C0 is the initial concentration on the donor side (µM). The efflux ratio was calculated according to the following equation (Equation (2)): (2) Efflux ratio= Papp BA(mean)/Papp AB(mean) where Papp BA (mean) and Papp AB (mean) are the average apparent permeability coefficients of each compound from side B to side A, and from side A to side B, respectively.

time to complete degradation in fecal lysates ([1]; individual compound 10 µM, rat fecal lysates) | stability in inactive fecal lysates ([1]; mixture of GA, MG and PGG 10 µM each, PGG after 8 h) | Papp A→B at 240 min ([2]; Caco-2, pH 6, as principle in MSKE 0.25 mg/mL, HBSS pH 6, read-out: Papp A to B) | Papp B→A at 240 min ([2]; Caco-2, pH 6, as principle in MSKE 0.25 mg/mL, HBSS pH 6, read-out: Papp B to A) | efflux ratio at 240 min ([2]; Caco-2, pH 6, as principle in MSKE 0.25 mg/mL, Papp BA/Papp AB, read-out: Efflux Ratios) | efflux ratio at 240 min, 20 µM ([2]; Caco-2, pH 6, in mixture 20 μM, Papp BA/Papp AB, read-out: Efflux Ratios) | Papp A→B at 240 min, 20 µM ([2]; Caco-2, pH 6, in mixture of GA, MG, PGG 20 μM, HBSS pH 6) | Papp B→A at 240 min, 20 µM ([2]; Caco-2, pH 6, in mixture of GA, MG, PGG 20 μM, HBSS pH 6, read-out: Papp B to A) | Papp A→B at 240 min, 20 µM ([2]; Caco-2, pH 6, individual compound 20 μM, HBSS pH 6) | Papp B→A at 240 min, 20 µM ([2]; Caco-2, pH 6, individual compound 20 μM, HBSS pH 6, read-out: Papp B to A) | efflux ratio at 240 min, 20 µM ([2]; Caco-2, pH 6, individual compound 20 μM, Papp BA/Papp AB, read-out: Efflux Ratios) | Structure (SMILES) | maximum GA concentration increase after hydrolysis of PGG ([1]; PGG 10 µM incubated with rat fecal lysates) | recovery after incubation with inactive fecal lysates and HBSS at pH 6 [1] | recovery after incubation with fecal lysates ([1]; rat fecal lysates) | stability in inactive rat fecal lysates or HBSS at pH 6 ([1]; individual compound 10 µM) | Papp A→B at 240 min ([2]; Caco-2, pH 6, Papp A to B) | Papp B→A at 240 min ([2]; Caco-2, pH 6, Papp B to A) | Papp B→A at 240 min, 20 µM ([2]; Caco-2, pH 6, Papp B to A)
 |  |  |  |  |  |  |  |  |  |  | O=C(O)c1cc(O)c(O)c(O)c1 [GA, Gallic acid] | approximately 4 fold | increased recoveries | increased recoveries | not significantly different from the initial concentrations | 1.46 ± 0.21 ×10⁻⁶ cm/s | 8.04 ± 0.43 ×10⁻⁶ cm/s | 1.02 ± 0.29 ×10⁻⁶ cm/s
≤ 8 h | good stabilities | 17.6 ± 1.54 ×10⁻⁶ cm/s | 11.3 ± 0.31 ×10⁻⁶ cm/s | 0.66 | 0.51 | 12.5 ± 0.63 ×10⁻⁶ cm/s | 6.33 ± 0.57 ×10⁻⁶ cm/s | 13.6 ± 0.4 ×10⁻⁶ cm/s | 7.02 ± 1.11 ×10⁻⁶ cm/s | 0.52 | COC(=O)c1cc(O)c(O)c(O)c1 [MG, methyl gallate] |  | increased recoveries | increased recoveries | stable |  |  | 
